Test results from ChEMBL document CHEMBL1123114, “Structure-activity relationships of arylimidazopyridine cardiotonics: discovery and inotropic activity of 2-[2-methoxy-4-(methylsulfinyl)phenyl]-1H-imidazo[4,5-c]pyridine” (1985).

species on record: Felis catus; experiment: Compound tested for contractility in isolated cat papillary muscle at 10 e-4 M.; format: functional; conditions: not given

| Structure (SMILES) | Control [%] |
| --- | --- |
| COc1cc(Oc2ccccc2)ccc1-c1nc2cc[nH]cc-2n1 | 155 |
| COc1cc(Cl)ccc1-c1nc2cc[nH]cc-2n1 | 165 |
| CCCCOc1ccc(-c2nc3cc[nH]cc-3n2)cc1 | 288 |
| CCCOc1cc(OC)ccc1-c1nc2cc[nH]cc-2n1 | 336 |
| COc1ccc(-c2nc3cccnc3[nH]2)cc1 | 173 |
| COc1ccc(-c2nc3cc[nH]cc-3n2)cc1OC | 252 |
| CCOc1cc(S(C)(=O)=O)ccc1-c1nc2cc[nH]cc-2n1 | 198 |
| COc1cc(S(C)(=O)=O)ccc1-c1nc2ccc[nH]c-2n1 | 129 |
| Cc1ccc(-c2nc3cc[nH]cc-3n2)cc1C | 226 |
| CSc1ccc(-c2nc3cc[nH]cc-3n2)cc1 | 212 |
| c1ccc(-c2nc3ccc[nH]c-3n2)cc1 | 112 |
| COc1ccc(-c2nc3cc[nH]cc-3n2)cc1 | 205 |
| COc1cc([N+](=O)[O-])ccc1-c1nc2cc[nH]cc-2n1 | 144 |
| COc1cc(C(F)(F)F)ccc1-c1nc2cc[nH]cc-2n1 | 135 |
| Nc1cc(-c2ccncc2)c[nH]c1=O [INAMRINONE] | 190 |
| CN(C)c1ccc(-c2nc3cc[nH]cc-3n2)cc1 | 175 |
| CCOc1cc([S+](C)[O-])ccc1-c1nc2cc[nH]cc-2n1 (centres undefined) | 262 |

species on record: Felis catus; experiment: Compound tested for contractility in isolated cat papillary muscle at 10 e-5 M.; format: functional; conditions: not given

| Structure (SMILES) | Control [%] |
| --- | --- |
| COc1cc(Oc2ccccc2)ccc1-c1nc2cc[nH]cc-2n1 | 122 |
| COc1cc(Cl)ccc1-c1nc2cc[nH]cc-2n1 | 162 |
| CCCCOc1ccc(-c2nc3cc[nH]cc-3n2)cc1 | 114 |
| CCCOc1cc(OC)ccc1-c1nc2cc[nH]cc-2n1 | 134 |
| COc1ccc(-c2nc3cccnc3[nH]2)cc1 | 104 |
| COc1ccc(-c2nc3cc[nH]cc-3n2)cc1OC | 164 |
| CCOc1cc(S(C)(=O)=O)ccc1-c1nc2cc[nH]cc-2n1 | 137 |
| COc1cc(S(C)(=O)=O)ccc1-c1nc2ccc[nH]c-2n1 | 120 |
| Cc1ccc(-c2nc3cc[nH]cc-3n2)cc1C | 133 |
| CSc1ccc(-c2nc3cc[nH]cc-3n2)cc1 | 115 |
| c1ccc(-c2nc3ccc[nH]c-3n2)cc1 | 101 |
| COc1ccc(-c2nc3cc[nH]cc-3n2)cc1 | 104 |
| COc1cc([N+](=O)[O-])ccc1-c1nc2cc[nH]cc-2n1 | 142 |
| COc1cc(C(F)(F)F)ccc1-c1nc2cc[nH]cc-2n1 | 139 |
| Nc1cc(-c2ccncc2)c[nH]c1=O [INAMRINONE] | 143 |
| CN(C)c1ccc(-c2nc3cc[nH]cc-3n2)cc1 | 94 |
| CCOc1cc([S+](C)[O-])ccc1-c1nc2cc[nH]cc-2n1 (centres undefined) | 183 |

species on record: Felis catus; experiment: Response ratio = (percent increase to drug)/(percent increase to 10 E-4 M isoproterenol); format: functional; conditions: not given

| Structure (SMILES) | Response ratio |
| --- | --- |
| COc1cc(Oc2ccccc2)ccc1-c1nc2cc[nH]cc-2n1 | 0.76 |
| COc1cc(Cl)ccc1-c1nc2cc[nH]cc-2n1 | 0.9 |
| CCCCOc1ccc(-c2nc3cc[nH]cc-3n2)cc1 | 2.61 |
| CCCOc1cc(OC)ccc1-c1nc2cc[nH]cc-2n1 | 3.27 |
| COc1ccc(-c2nc3cccnc3[nH]2)cc1 | 1.01 |
| COc1ccc(-c2nc3cc[nH]cc-3n2)cc1OC | 2.11 |
| CCOc1cc(S(C)(=O)=O)ccc1-c1nc2cc[nH]cc-2n1 | 1.36 |
| COc1cc(S(C)(=O)=O)ccc1-c1nc2ccc[nH]c-2n1 | 0.4 |
| Cc1ccc(-c2nc3cc[nH]cc-3n2)cc1C | 1.75 |
| CSc1ccc(-c2nc3cc[nH]cc-3n2)cc1 | 1.55 |
| c1ccc(-c2nc3ccc[nH]c-3n2)cc1 | 0.15 |
| COc1ccc(-c2nc3cc[nH]cc-3n2)cc1 | 1.46 |
| COc1cc([N+](=O)[O-])ccc1-c1nc2cc[nH]cc-2n1 | 0.61 |
| COc1cc(C(F)(F)F)ccc1-c1nc2cc[nH]cc-2n1 | 0.49 |
| Nc1cc(-c2ccncc2)c[nH]c1=O [INAMRINONE] | 1.25 |
| CN(C)c1ccc(-c2nc3cc[nH]cc-3n2)cc1 | 1.04 |
| CCOc1cc([S+](C)[O-])ccc1-c1nc2cc[nH]cc-2n1 (centres undefined) | 2.25 |

species on record: Felis catus; experiment: Response ratio = (percent increase to drug)/(percent increase to 10 E-5 M isoproterenol); format: functional; conditions: not given

| Structure (SMILES) | Response ratio |
| --- | --- |
| COc1cc(Oc2ccccc2)ccc1-c1nc2cc[nH]cc-2n1 | 0.3 |
| COc1cc(Cl)ccc1-c1nc2cc[nH]cc-2n1 | 0.86 |
| CCCCOc1ccc(-c2nc3cc[nH]cc-3n2)cc1 | 0.19 |
| CCCOc1cc(OC)ccc1-c1nc2cc[nH]cc-2n1 | 0.47 |
| COc1ccc(-c2nc3cccnc3[nH]2)cc1 | 0.06 |
| COc1ccc(-c2nc3cc[nH]cc-3n2)cc1OC | 0.89 |
| CCOc1cc(S(C)(=O)=O)ccc1-c1nc2cc[nH]cc-2n1 | 0.51 |
| COc1cc(S(C)(=O)=O)ccc1-c1nc2ccc[nH]c-2n1 | 0.28 |
| Cc1ccc(-c2nc3cc[nH]cc-3n2)cc1C | 0.46 |
| CSc1ccc(-c2nc3cc[nH]cc-3n2)cc1 | 0.21 |
| c1ccc(-c2nc3ccc[nH]c-3n2)cc1 | 0.01 |
| COc1ccc(-c2nc3cc[nH]cc-3n2)cc1 | 0.07 |
| COc1cc([N+](=O)[O-])ccc1-c1nc2cc[nH]cc-2n1 | 0.58 |
| COc1cc(C(F)(F)F)ccc1-c1nc2cc[nH]cc-2n1 | 0.54 |
| Nc1cc(-c2ccncc2)c[nH]c1=O [INAMRINONE] | 0.61 |
| CN(C)c1ccc(-c2nc3cc[nH]cc-3n2)cc1 | -0.08 |
| CCOc1cc([S+](C)[O-])ccc1-c1nc2cc[nH]cc-2n1 (centres undefined) | 1.15 |

species on record: Felis catus; experiment: Response ratio = (percent increase to drug)/(percent increase to 10 E-6 M isoproterenol); format: functional; conditions: not given

| Structure (SMILES) | Response ratio |
| --- | --- |
| COc1cc(Cl)ccc1-c1nc2cc[nH]cc-2n1 | 0.32 |
| CCCCOc1ccc(-c2nc3cc[nH]cc-3n2)cc1 | 0.19 |
| COc1cc([N+](=O)[O-])ccc1-c1nc2cc[nH]cc-2n1 | 0.38 |
| CCOc1cc([S+](C)[O-])ccc1-c1nc2cc[nH]cc-2n1 (centres undefined) | 0.18 |

species on record: Felis catus; experiment: Compound tested for contractility in isolated cat papillary muscle at 10 e-6 M.; format: functional; conditions: not given

| Structure (SMILES) | Control [%] |
| --- | --- |
| COc1cc(Cl)ccc1-c1nc2cc[nH]cc-2n1 | 123 |
| COc1cc([N+](=O)[O-])ccc1-c1nc2cc[nH]cc-2n1 | 127 |
| CCOc1cc([S+](C)[O-])ccc1-c1nc2cc[nH]cc-2n1 (centres undefined) | 113 |

system: Canis familiaris; experiment: Compound tested for contractility in anesthetized dog when administered intravenously.; format: functional; conditions: Canis lupus familiaris, iv

| Structure (SMILES) | ED50 [mg/kg] |
| --- | --- |
| COc1cc(Cl)ccc1-c1nc2cc[nH]cc-2n1 | 0.23 |
| CCCOc1cc(OC)ccc1-c1nc2cc[nH]cc-2n1 | 1.3 |
| COc1ccc(-c2nc3cc[nH]cc-3n2)cc1OC | 0.4 |
| CCOc1cc(S(C)(=O)=O)ccc1-c1nc2cc[nH]cc-2n1 | 0.07 |
| COc1cc(S(C)(=O)=O)ccc1-c1nc2ccc[nH]c-2n1 | 0.4 |
| Cc1ccc(-c2nc3cc[nH]cc-3n2)cc1C | 5.2 |
| CSc1ccc(-c2nc3cc[nH]cc-3n2)cc1 | 4 |
| c1ccc(-c2nc3ccc[nH]c-3n2)cc1 | 8 |
| COc1ccc(-c2nc3cc[nH]cc-3n2)cc1 | 1.7 |
| COc1cc([N+](=O)[O-])ccc1-c1nc2cc[nH]cc-2n1 | 0.015 |
| COc1cc(C(F)(F)F)ccc1-c1nc2cc[nH]cc-2n1 | 0.009 |
| Nc1cc(-c2ccncc2)c[nH]c1=O [INAMRINONE] | 1.3 |
| CCOc1cc([S+](C)[O-])ccc1-c1nc2cc[nH]cc-2n1 (centres undefined) | 0.1 |

system: Canis familiaris; experiment: Compound tested for contractility in anesthetized dog when administered intravenously; ED50 not obtained; format: functional, organism-based; conditions: Canis lupus familiaris

| Structure (SMILES) | ED50 |
| --- | --- |
| COc1ccc(-c2nc3cccnc3[nH]2)cc1 | ED50 not obtained |

system: Canis familiaris; experiment: Percent change in heart rate in anesthetized dog; format: functional, Canis lupus familiaris; conditions: not given

| Structure (SMILES) | Change [%] |
| --- | --- |
| COc1cc(Cl)ccc1-c1nc2cc[nH]cc-2n1 | 14 |
| CCCOc1cc(OC)ccc1-c1nc2cc[nH]cc-2n1 | -7 |
| COc1ccc(-c2nc3cc[nH]cc-3n2)cc1OC | 15 |
| CCOc1cc(S(C)(=O)=O)ccc1-c1nc2cc[nH]cc-2n1 | 7 |
| COc1cc(S(C)(=O)=O)ccc1-c1nc2ccc[nH]c-2n1 | 10 |
| Cc1ccc(-c2nc3cc[nH]cc-3n2)cc1C | 0 |
| CSc1ccc(-c2nc3cc[nH]cc-3n2)cc1 | 0 |
| c1ccc(-c2nc3ccc[nH]c-3n2)cc1 | 7 |
| COc1ccc(-c2nc3cc[nH]cc-3n2)cc1 | 17 |
| COc1cc([N+](=O)[O-])ccc1-c1nc2cc[nH]cc-2n1 | 5 |
| COc1cc(C(F)(F)F)ccc1-c1nc2cc[nH]cc-2n1 | 10 |
| Nc1cc(-c2ccncc2)c[nH]c1=O [INAMRINONE] | 11 |
| CCOc1cc([S+](C)[O-])ccc1-c1nc2cc[nH]cc-2n1 (centres undefined) | 14 |

system: Canis familiaris; experiment: Percent change in mean arterial blood pressure in anesthetized dog; format: functional, Canis lupus familiaris; conditions: not given

| Structure (SMILES) | Change [%] |
| --- | --- |
| COc1cc(Cl)ccc1-c1nc2cc[nH]cc-2n1 | -21 |
| CCCOc1cc(OC)ccc1-c1nc2cc[nH]cc-2n1 | -59 |
| COc1ccc(-c2nc3cc[nH]cc-3n2)cc1OC | -9 |
| CCOc1cc(S(C)(=O)=O)ccc1-c1nc2cc[nH]cc-2n1 | -11 |
| COc1cc(S(C)(=O)=O)ccc1-c1nc2ccc[nH]c-2n1 | -20 |
| Cc1ccc(-c2nc3cc[nH]cc-3n2)cc1C | -53 |
| CSc1ccc(-c2nc3cc[nH]cc-3n2)cc1 | -15 |
| c1ccc(-c2nc3ccc[nH]c-3n2)cc1 | -36 |
| COc1ccc(-c2nc3cc[nH]cc-3n2)cc1 | -14 |
| COc1cc([N+](=O)[O-])ccc1-c1nc2cc[nH]cc-2n1 | -23 |
| COc1cc(C(F)(F)F)ccc1-c1nc2cc[nH]cc-2n1 | -12 |
| Nc1cc(-c2ccncc2)c[nH]c1=O [INAMRINONE] | -9 |
| CCOc1cc([S+](C)[O-])ccc1-c1nc2cc[nH]cc-2n1 (centres undefined) | -4 |

system: Canis familiaris; experiment: maximum percent increase in contractility in anesthetized dog when administered 4 mg/Kg intravenously; format: functional, Canis lupus familiaris; conditions: not given

| Structure (SMILES) | Increase [%] |
| --- | --- |
| COc1cc(Oc2ccccc2)ccc1-c1nc2cc[nH]cc-2n1 | <50 |
| CN(C)c1ccc(-c2nc3cc[nH]cc-3n2)cc1 | <50 |

system: Canis familiaris; experiment: Percent change in heart rate in anesthetized dog; ED50 not obtained; format: functional, organism-based; conditions: Canis lupus familiaris

| Structure (SMILES) | ED50 |
| --- | --- |
| COc1ccc(-c2nc3cccnc3[nH]2)cc1 | ED50 not obtained |

system: Canis familiaris; experiment: Percent change in mean arterial blood pressure in anesthetized dog; ED50 not obtained; format: functional, organism-based; conditions: Canis lupus familiaris

| Structure (SMILES) | ED50 |
| --- | --- |
| COc1ccc(-c2nc3cccnc3[nH]2)cc1 | ED50 not obtained |
